Legend:
[1] = molecular target: T1, CYP1C2 (Danio rerio, UniProt A0AC58HLV5); format: biochemical
T1 sequence (A0AC58HLV5 1-514): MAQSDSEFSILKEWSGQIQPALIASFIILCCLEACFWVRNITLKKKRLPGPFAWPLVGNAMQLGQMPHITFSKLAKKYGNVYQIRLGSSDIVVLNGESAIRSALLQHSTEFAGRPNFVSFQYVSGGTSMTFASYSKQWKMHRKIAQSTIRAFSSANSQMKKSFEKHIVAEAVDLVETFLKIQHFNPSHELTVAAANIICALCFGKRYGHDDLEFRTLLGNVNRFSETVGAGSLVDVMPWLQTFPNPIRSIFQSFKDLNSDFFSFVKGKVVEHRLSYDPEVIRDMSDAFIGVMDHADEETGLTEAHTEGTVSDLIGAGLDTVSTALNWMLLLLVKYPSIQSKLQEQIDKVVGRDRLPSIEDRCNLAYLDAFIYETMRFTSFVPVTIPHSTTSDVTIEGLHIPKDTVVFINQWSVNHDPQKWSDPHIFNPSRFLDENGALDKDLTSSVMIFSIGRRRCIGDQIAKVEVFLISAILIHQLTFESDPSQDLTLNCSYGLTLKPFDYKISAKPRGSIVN
T1 sequence (P16603 2-691 partner): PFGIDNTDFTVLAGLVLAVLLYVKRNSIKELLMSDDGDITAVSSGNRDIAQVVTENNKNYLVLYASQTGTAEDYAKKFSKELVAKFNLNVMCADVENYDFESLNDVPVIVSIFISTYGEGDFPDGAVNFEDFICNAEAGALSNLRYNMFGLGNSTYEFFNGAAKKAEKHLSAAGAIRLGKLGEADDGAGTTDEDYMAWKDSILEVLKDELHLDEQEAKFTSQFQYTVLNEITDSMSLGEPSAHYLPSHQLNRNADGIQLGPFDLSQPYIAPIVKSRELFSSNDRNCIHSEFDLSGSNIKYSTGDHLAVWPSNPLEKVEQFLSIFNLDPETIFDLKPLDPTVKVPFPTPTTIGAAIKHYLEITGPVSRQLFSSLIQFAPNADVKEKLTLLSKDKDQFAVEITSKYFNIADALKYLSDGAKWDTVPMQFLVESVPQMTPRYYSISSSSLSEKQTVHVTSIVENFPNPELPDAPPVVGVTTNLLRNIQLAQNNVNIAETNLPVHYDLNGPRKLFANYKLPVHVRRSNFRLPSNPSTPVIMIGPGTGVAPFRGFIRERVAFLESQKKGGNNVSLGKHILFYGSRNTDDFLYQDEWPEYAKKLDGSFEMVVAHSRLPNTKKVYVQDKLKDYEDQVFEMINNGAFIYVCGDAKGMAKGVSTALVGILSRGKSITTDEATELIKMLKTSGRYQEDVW

[2] = molecular target: T2, CYP1D1 (Danio rerio, UniProt A0ACM8Q602); format: biochemical
T2 sequence (A0ACM8Q602 1-512): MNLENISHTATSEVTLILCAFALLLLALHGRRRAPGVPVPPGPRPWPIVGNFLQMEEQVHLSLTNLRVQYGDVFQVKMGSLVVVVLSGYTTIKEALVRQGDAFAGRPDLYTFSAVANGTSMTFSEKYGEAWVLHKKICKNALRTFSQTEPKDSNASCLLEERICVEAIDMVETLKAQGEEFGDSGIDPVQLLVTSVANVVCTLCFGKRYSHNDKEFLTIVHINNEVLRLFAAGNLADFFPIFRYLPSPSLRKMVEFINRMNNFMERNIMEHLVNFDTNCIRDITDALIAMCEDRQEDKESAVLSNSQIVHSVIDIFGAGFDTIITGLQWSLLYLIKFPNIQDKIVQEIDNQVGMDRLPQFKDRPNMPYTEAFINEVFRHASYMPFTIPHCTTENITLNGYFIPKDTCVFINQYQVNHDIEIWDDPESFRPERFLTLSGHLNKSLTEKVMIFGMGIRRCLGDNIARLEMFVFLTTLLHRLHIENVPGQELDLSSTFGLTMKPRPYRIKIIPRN

[3] = molecular target: T3, CYP1C1 (Danio rerio, UniProt A0PJ31); format: biochemical
T3 sequence (A0PJ31 1-523): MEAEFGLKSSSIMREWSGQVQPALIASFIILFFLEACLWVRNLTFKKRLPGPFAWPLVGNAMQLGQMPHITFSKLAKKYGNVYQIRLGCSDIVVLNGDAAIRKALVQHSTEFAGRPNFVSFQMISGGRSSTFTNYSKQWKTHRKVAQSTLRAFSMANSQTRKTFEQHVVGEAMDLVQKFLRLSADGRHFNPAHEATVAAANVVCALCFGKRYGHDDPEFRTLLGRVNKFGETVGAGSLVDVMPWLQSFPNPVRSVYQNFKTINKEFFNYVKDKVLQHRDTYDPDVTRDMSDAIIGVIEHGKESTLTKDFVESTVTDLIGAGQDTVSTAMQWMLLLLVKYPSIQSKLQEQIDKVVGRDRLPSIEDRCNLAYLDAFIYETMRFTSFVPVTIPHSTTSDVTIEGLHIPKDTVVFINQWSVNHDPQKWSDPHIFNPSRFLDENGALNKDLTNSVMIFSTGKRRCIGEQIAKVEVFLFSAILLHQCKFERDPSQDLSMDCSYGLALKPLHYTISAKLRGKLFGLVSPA

[4] = molecular target: T3, CYP1C1; format: cell-based
[5] = molecular target: T4, CYP1A (Danio rerio, UniProt A0A8M1PCF4); assay: O-deethylation rate; format: cell-based
T4 sequence (A0A8M1PCF4 1-519): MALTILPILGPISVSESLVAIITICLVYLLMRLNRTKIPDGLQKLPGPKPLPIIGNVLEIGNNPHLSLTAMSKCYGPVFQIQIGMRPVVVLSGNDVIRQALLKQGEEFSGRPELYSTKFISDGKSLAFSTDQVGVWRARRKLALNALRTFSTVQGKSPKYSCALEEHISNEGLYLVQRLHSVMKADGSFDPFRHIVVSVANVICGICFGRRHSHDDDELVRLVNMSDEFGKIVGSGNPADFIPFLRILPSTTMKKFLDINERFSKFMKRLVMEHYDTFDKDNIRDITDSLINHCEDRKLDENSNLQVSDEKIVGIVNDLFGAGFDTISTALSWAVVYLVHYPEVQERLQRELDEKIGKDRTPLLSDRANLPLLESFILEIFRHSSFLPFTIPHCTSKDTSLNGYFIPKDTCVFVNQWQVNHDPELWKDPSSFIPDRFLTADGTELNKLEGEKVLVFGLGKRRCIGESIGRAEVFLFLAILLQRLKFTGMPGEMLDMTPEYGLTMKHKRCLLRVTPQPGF

[6] = molecular target: T3, CYP1C1; assay: kcat for O-demethylation; format: cell-based
[7] = substrate: CCOc1ccc2nc3ccc(=O)cc-3oc2c1; assay: Km for O-deethylation; format: biochemical, Danio rerio; conditions: heme; NADPH

c1ccc2c(c1)cc1ccc3cccc4ccc2c1c34 [BaP, benzo[a]pyrene]
Ki [1]: 200 nM
Ki [2]: 12000 nM
Ki [3]: 60 nM

CCOc1ccc2c(C(F)(F)F)cc(=O)oc2c1 [EFC, 7-ethoxy-4-trifluoromethyl-coumarin]
kcat (mol substrate oxidized/mol P450/min) ^a / EFC ^c, ^d [4]: 1.51 ± 0.14 mol substrate oxidized/mol P450/min

CCOc1ccc2nc3ccc(=O)cc-3oc2c1 [ER, 7-ethoxyresorufin]
CYP expressed via pYES/DEST52 ^a / 1A [5]: 89.3 ± 1.9 pmol min^−1 mg^−1 microsomal protein

COc1ccc2nc3ccc(=O)cc-3oc2c1 [MR, 7-methoxyresorufin]
kcat (mol substrate oxidized/mol P450/min) ^b / MR [6]: 4.9 ± 0.6 mol substrate oxidized/mol P450/min

B1: CYP1C1 (Danio rerio) (protein)
chain: T3 sequence (A0PJ31 1-523)
Km [7]: 0.085 ± 0.005 µM

B2: CYP1C2 (Danio rerio) (protein)
chain: T1 sequence (A0AC58HLV5 1-514)
Km [7]: 0.11 ± 0.01 µM
